SMILES strings stand for the structures.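 Exposure lasted 48 hours, with cells grown in 96-well plates and compounds tested at five concentrations. Abbreviation: GI50, concentration required for 50% inhibition of growth. At the TGI there is no net growth.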 A value given as a limit tells only on which side of the number the result lay.

The TGI is the concentration at which net growth stops. The term GI50 denotes the concentration at which growth is held to half of that of the control.

Test systems include NCI-H226 lung; SK-OV-3 ovarian; UO-31 renal; ACHN renal; LOX IMVI melanoma; SNB-19 CNS; NCI-H23 lung; OVCAR-8 ovarian; RXF 393 renal; TK-10 renal; NCI-H460 lung; SK-MEL-28 melanoma; DU-145 prostate; PC-3 prostate; MDA-MB-435.
Experiment in all cases: DTP human tumour cell line panel, 48 h

In the case of `CC[n+]1c(/C=C/c2ccc(N(CCCl)CCCl)cc2)ccc2cc(Br)ccc21`, the TGI was 7.48 µM in the test with NCI-H226 lung; 9.09 µM with SK-OV-3 ovarian; 2.87 µM in the test with LOX IMVI melanoma; 2.57 µM with SNB-19 CNS; 10.4 µM in the test with OVCAR-8 ovarian; 11.4 µM in the test on NCI-H460 lung. The TGI in the test on SK-MEL-28 melanoma came out at 2.52 µM. The GI50 in the test on UO-31 renal is 1470 µM; with ACHN renal, 1060 µM; with NCI-H23 lung, 172 µM; with RXF 393 renal, 588 µM; in the test on TK-10 renal, 652 µM.
Regarding `COC1(CCO)CC=CCC1(CCO)OC` (centres undefined), the TGI with NCI-H226 lung, in the test on DU-145 prostate, in the test on SK-OV-3 ovarian, in the test with UO-31 renal, in the test with ACHN renal and in the test with LOX IMVI melanoma was > 100 µM throughout. The TGI in the test on SNB-19 CNS, with OVCAR-8 ovarian, in the test with TK-10 renal, in the test on NCI-H460 lung, with SK-MEL-28 melanoma and with PC-3 prostate was > 100 µM each time.
`CN(Cc1cnc2nc(N)nc(N)c2n1)c1ccc(C(=O)NC2CCCCC2)cc1`: the TGI was 80.4 µM with NCI-H226 lung; > 100 µM in the test on DU-145 prostate; > 100 µM with SK-OV-3 ovarian; > 100 µM with UO-31 renal; 47.8 µM in the test with ACHN renal; > 100 µM in the test with LOX IMVI melanoma. Also, the TGI was 38.7 µM in the test on SNB-19 CNS; > 100 µM in the test with NCI-H23 lung; > 100 µM in the test on OVCAR-8 ovarian; > 100 µM in the test with RXF 393 renal; > 100 µM in the test with TK-10 renal; 63.5 µM in the test on NCI-H460 lung. The molecule also gave a TGI in the test on PC-3 prostate of 46 µM.
In the case of `CCCNc1c(Cl)cc(Cl)c2[nH]c3ccccc3c(=O)c12`, the TGI with NCI-H226 lung, in the test on SK-OV-3 ovarian, in the test on MDA-MB-435, in the test on UO-31 renal, in the test on ACHN renal and in the test with LOX IMVI melanoma was > 100 µM in each case. The TGI is 65.7 µM in the test with SNB-19 CNS; > 100 µM in the test on NCI-H23 lung; > 100 µM in the test on OVCAR-8 ovarian; > 100 µM in the test with TK-10 renal; > 100 µM in the test on SK-MEL-28 melanoma; > 100 µM with PC-3 prostate.
As for `CCOC(=O)C(NC(=O)Nc1ccccc1F)(OC)C(F)(F)F` (centres undefined), the TGI with SK-OV-3 ovarian, in the test on MDA-MB-435, in the test with UO-31 renal, with ACHN renal, in the test with LOX IMVI melanoma and in the test on SNB-19 CNS was > 100 µM throughout. Moreover, the TGI with NCI-H23 lung, in the test with OVCAR-8 ovarian, in the test with RXF 393 renal, in the test with TK-10 renal, in the test on SK-MEL-28 melanoma and in the test with PC-3 prostate was > 100 µM in each case.
Regarding `Cc1[nH]c2ncn(N)c(=N)c2c1Cc1ccccc1`, the TGI in the test with NCI-H226 lung, in the test with SK-OV-3 ovarian, in the test with MDA-MB-435, in the test with UO-31 renal, with ACHN renal and in the test on LOX IMVI melanoma was > 100 µM in each case. Further, the TGI in the test on SNB-19 CNS, in the test on NCI-H23 lung, with OVCAR-8 ovarian, with TK-10 renal, with SK-MEL-28 melanoma and in the test with PC-3 prostate was > 100 µM in each case.
On to `COc1cccc(/C=N/[N-]C(N)=O)c1[O-].[OH3+].[Zn+2]`, for which the TGI in the test on NCI-H226 lung, with SK-OV-3 ovarian, with UO-31 renal, in the test with ACHN renal, with LOX IMVI melanoma and in the test with SNB-19 CNS was > 100 µM in each case. Also, the TGI in the test with NCI-H23 lung, with OVCAR-8 ovarian, in the test with RXF 393 renal, in the test on TK-10 renal, in the test on NCI-H460 lung and in the test on SK-MEL-28 melanoma was > 100 µM each time.
Regarding `Cc1oc2nc(N(C)C)n3c(C)nnc3c2c1C`, the TGI in the test on NCI-H226 lung, with DU-145 prostate, with SK-OV-3 ovarian, in the test with MDA-MB-435, in the test on UO-31 renal and in the test on ACHN renal was > 100 µM in each case. For the same molecule, the TGI in the test with LOX IMVI melanoma, in the test with SNB-19 CNS, with NCI-H23 lung, with OVCAR-8 ovarian, with RXF 393 renal and in the test on TK-10 renal was > 100 µM in each case. Further, the TGI in the test with SK-MEL-28 melanoma is > 100 µM.
On to `N=C1SCCS1`, for which the TGI with NCI-H226 lung, in the test with SK-OV-3 ovarian, with UO-31 renal, in the test on ACHN renal, with LOX IMVI melanoma and in the test on SNB-19 CNS was > 100 µM throughout. The TGI in the test on NCI-H23 lung, in the test with OVCAR-8 ovarian, in the test on TK-10 renal, in the test with NCI-H460 lung and in the test with SK-MEL-28 melanoma was > 100 µM throughout.
For `c1cc(-c2ccc(Oc3ccc(-c4ccncc4)cc3)cc2)ccn1`, the TGI in the test with NCI-H226 lung, in the test on DU-145 prostate, in the test on SK-OV-3 ovarian, in the test with UO-31 renal, in the test on ACHN renal and in the test with LOX IMVI melanoma was > 100 µM each time. The TGI in the test with SNB-19 CNS is > 100 µM; with NCI-H23 lung, > 34 µM; with OVCAR-8 ovarian it was > 100 µM; in the test with RXF 393 renal, > 86 µM; in the test with TK-10 renal it was > 66.1 µM; in the test with NCI-H460 lung, > 94.2 µM. The TGI in the test on SK-MEL-28 melanoma is > 95.1 µM; in the test with PC-3 prostate, > 100 µM.
For `CSc1ccc(C=C2N=C(c3ccccc3)N(c3cc(C(=O)c4ccccc4)ccc3N3C(=O)/C(=C/c4ccc(SC)cc4)N=C3c3ccccc3)C2=O)cc1`, the concentration for total growth inhibition (TGI) in the test with DU-145 prostate, with SK-OV-3 ovarian, in the test with MDA-MB-435, in the test with UO-31 renal, in the test on ACHN renal and with LOX IMVI melanoma was > 100 µM throughout. The TGI in the test with SNB-19 CNS, in the test on OVCAR-8 ovarian, in the test on TK-10 renal, with NCI-H460 lung, in the test on SK-MEL-28 melanoma and in the test on PC-3 prostate was > 100 µM in each case.
For the molecule `[N-]=[N+]=NC1=C(N=[N+]=[N-])c2cccc3cccc(c23)C1=O`, the total growth inhibition concentration (TGI) in the test with NCI-H226 lung, in the test with SK-OV-3 ovarian, in the test on MDA-MB-435, with UO-31 renal, in the test with ACHN renal and with LOX IMVI melanoma was > 100 µM throughout. The TGI in the test with SNB-19 CNS, in the test with NCI-H23 lung, with OVCAR-8 ovarian, with RXF 393 renal, in the test on TK-10 renal and with NCI-H460 lung was > 100 µM throughout. In addition, the TGI in the test with PC-3 prostate was > 100 µM.
As for `CN(N=O)C(N)=NC(=O)c1ccccc1`, the TGI with NCI-H226 lung, in the test with SK-OV-3 ovarian, in the test with MDA-MB-435, in the test on UO-31 renal, in the test on ACHN renal and in the test on LOX IMVI melanoma was > 100 µM each time. In addition, the TGI was > 100 µM in the test with SNB-19 CNS; > 100 µM in the test with NCI-H23 lung; > 100 µM in the test with OVCAR-8 ovarian; > 100 µM with RXF 393 renal; > 100 µM in the test with TK-10 renal; 40.6 µM with NCI-H460 lung. Besides, the TGI in the test with PC-3 prostate was > 100 µM.
With `CCCN=C1S/C(=C/c2ccc(OC)c(OC)c2)C(=O)N1c1ccccc1`, the TGI was 95 µM in the test on NCI-H226 lung; 37.8 µM in the test on SK-OV-3 ovarian; > 100 µM in the test with MDA-MB-435; 98.6 µM in the test on UO-31 renal; > 100 µM in the test on ACHN renal; > 100 µM in the test on LOX IMVI melanoma. The TGI is 63.4 µM in the test on SNB-19 CNS; > 100 µM with NCI-H23 lung; > 100 µM with OVCAR-8 ovarian; 55.2 µM in the test with TK-10 renal; > 100 µM in the test with NCI-H460 lung; > 100 µM in the test with SK-MEL-28 melanoma. Moreover, in the test on PC-3 prostate, the TGI is > 100 µM.
In the case of `c1ccc(NC2(c3nnnn3C3CCCCC3)CCNCC2)cc1`, the total growth inhibition concentration (TGI) was 62.3 µM with NCI-H226 lung; > 100 µM in the test on DU-145 prostate; 83.4 µM with SK-OV-3 ovarian; 38 µM with MDA-MB-435; 27.7 µM in the test on UO-31 renal; 52.6 µM with ACHN renal. Besides, the TGI turned out to be 30.7 µM with LOX IMVI melanoma; 42.5 µM in the test on SNB-19 CNS; 52.4 µM in the test with NCI-H23 lung; 81.9 µM in the test on OVCAR-8 ovarian; 33.3 µM in the test with TK-10 renal; 31.7 µM in the test with NCI-H460 lung. In addition, the TGI with SK-MEL-28 melanoma was 32.5 µM.
As to `O=C(O)c1ccccc1/C=C1\Cc2ccc3c(c2C1=O)CCCC3`, the TGI in the test on NCI-H226 lung was 82.7 µM; in the test with DU-145 prostate, > 100 µM; in the test on SK-OV-3 ovarian, > 100 µM; in the test on MDA-MB-435, > 100 µM; in the test with UO-31 renal, > 100 µM; with ACHN renal, > 100 µM. Besides, the TGI is > 100 µM with LOX IMVI melanoma; > 100 µM in the test with SNB-19 CNS; 75.4 µM with NCI-H23 lung; > 100 µM in the test with OVCAR-8 ovarian; 76.3 µM in the test with RXF 393 renal; > 100 µM in the test with TK-10 renal. Besides, the TGI in the test with NCI-H460 lung and in the test with SK-MEL-28 melanoma was > 100 µM each time.
As to `COc1ccc(-n2c(-c3ccccc3)cc(-c3cccs3)c2-c2cccs2)cc1`, the TGI with NCI-H226 lung, in the test on DU-145 prostate, in the test with SK-OV-3 ovarian, with MDA-MB-435, in the test on UO-31 renal and in the test on ACHN renal was > 100 µM in each case. Besides, the TGI is > 100 µM with LOX IMVI melanoma; 95.7 µM with NCI-H23 lung; > 100 µM in the test on OVCAR-8 ovarian; > 100 µM in the test with RXF 393 renal; > 100 µM in the test with TK-10 renal; > 100 µM with NCI-H460 lung. In the test with SK-MEL-28 melanoma, the TGI was > 100 µM.

Values taken from PubChem BioAssay (NCI).
